Assay results from US9833497B2, “Human originated EGF domain proteins and use of the same” (CHENGDU SOURCEBIO LIMITED-LIABILITY COMPANY, priority 2013, dated 2017).

Experiments:
Assay type in all cases: cell-based
[1] = tested on: Citrobacter diversus; experiment: MIC against Gram-negative bacteria: Citrobacter diversus; conditions: for MIC (μg/mL) C. diversus / MIC C. diversus: 5×10^5 CFU/mL
Procedure, shortened: (§1)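 Bacteria grown in LB at 37° C to McFarland 0.5, resuspended and seeded at 5×10^5 CFU/mL in 96-well plates. Purified human EGF-domain proteins two-fold serially diluted, triplicate wells; cultured at 37° C, shaking 175 rpm. MIC = lowest protein concentration with no growth.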

[2] = tested on: Moraxella catarrhalis; experiment: MIC against Gram-negative bacteria: Moraxella catarrhalis; conditions: for MIC (μg/mL) M. catarrhalis / MIC M. catarrhalis: 5×10^5 CFU/mL
Procedure, shortened: as §1

[3] = tested on: E. coli DH5α; experiment: Antibacterial activity: MIC and growth curve against E. coli DH5α in 96-well plate; conditions: minimal inhibitory concentration against E. coli DH5α; 96-well plate, 5×10^5 CFU/mL, 37° C., judged after 8 h
Procedure, shortened: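 Log-phase DH5α (OD600 about 0.5, 37° C, 185 rpm in LB) was pelleted, resuspended in fresh LB and seeded at 5×10^5 CFU/mL with recombinant protein at 50, 25 and 12.5 μg/mL (two-fold series), in triplicate. Plates were shaken at 175 rpm, 37° C, and OD600 was read every 30 min. MIC was the lowest concentration with no growth.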

[4] = tested on: Proteus vulgaris; experiment: MIC against Gram-negative bacteria: Proteus vulgaris; conditions: for MIC (μg/mL) P. vulgaris / MIC P. vulgaris: 5×10^5 CFU/mL
Procedure, shortened: as §1

[5] = tested on: Serratia marcescens; experiment: MIC against Gram-negative bacteria: Serratia marcescens; conditions: for MIC (μg/mL) S. marcescens / MIC S. marcescens: 5×10^5 CFU/mL
Procedure, shortened: as §1

[6] = tested on: Klebsiella pneumonia; experiment: MIC against Gram-negative bacteria: Klebsiella pneumonia; conditions: for MIC (μg/mL) K. pneumonia / MIC K. pneumonia: 5×10^5 CFU/mL
Procedure, shortened: as §1

[7] = tested on: Aeromonas hydrophila; experiment: MIC against Gram-negative bacteria: Aeromonas hydrophila; conditions: for MIC (μg/mL) A. hydrophila / MIC A. hydrophila: 5×10^5 CFU/mL
Procedure, shortened: as §1

[8] = tested on: Proteus mirabilis; experiment: MIC against Gram-negative bacteria: Proteus mirabilis; conditions: for MIC (μg/mL) P. mirabilis / MIC P. mirabilis: 5×10^5 CFU/mL
Procedure, shortened: as §1

[9] = tested on: Pseudomonas aeruginosa; experiment: MIC against Gram-negative bacteria: Pseudomonas aeruginosa; conditions: for MIC (μg/mL) P. aeruginosa / MIC P. aeruginosa: 5×10^5 CFU/mL
Procedure, shortened: as §1

[10] = tested on: Enterobacter cloacae; experiment: MIC against Gram-negative bacteria: Enterobacter cloacae; conditions: for MIC (μg/mL) E. cloacae / MIC E. cloacae: 5×10^5 CFU/mL
Procedure, shortened: as §1

[11] = tested on: E. coli BL21; experiment: MIC against Gram-negative bacteria: E. coli BL21; conditions: for MIC / MIC (μg/mL) E. coli BL21: E. coli BL21; for MIC (μg/mL) E. coli BL21 / MIC E. coli BL21: 5×10^5 CFU/mL
Procedure, shortened: as §1

[12] = C. diversus, 10 h cultivation at 37° C.
[13] = M. catarrhalis, 10 h cultivation at 37° C.
[14] = P. vulgaris, 10 h cultivation at 37° C.
[15] = S. marcescens, 10 h cultivation at 37° C.
[16] = K. pneumonia, 10 h cultivation at 37° C.
[17] = A. hydrophila, 10 h cultivation at 37° C.
[18] = P. mirabilis, 10 h cultivation at 37° C.
[19] = P. aeruginosa, 10 h cultivation at 37° C.
[20] = E. cloacae, 10 h cultivation at 37° C.

PRT1009 (DVDECLDQPCHPTGTAACHSLANAFYCQCLPGHTGQWCE; listed as Homo sapiens)
MIC [1, 12]: 12.5 µg/mL | MIC [2, 13]: 25 µg/mL | MIC [3]: 25 µg/mL | MIC [4, 14]: 25 µg/mL | MIC [5, 15]: 100 µg/mL | MIC [6, 16]: 12.5 µg/mL | MIC [7, 17]: 25 µg/mL | MIC [8, 18]: 50 µg/mL | MIC [9, 19]: 50 µg/mL | MIC [10, 20]: 50 µg/mL | MIC ([11]; 10 h cultivation at 37° C.): 12.5 µg/mL

PRT197 (LGYDCTTDKCNDRGVCNNKKHCHCSASYLPPDCS; listed as Homo sapiens)
MIC (μg/mL) C. diversus [1, 12]: 12.5 µg/mL | MIC (μg/mL) M. catarrhalis [2, 13]: 12.5 µg/mL | MIC [3]: 50 µg/mL | MIC (μg/mL) P. vulgaris [4, 14]: 12.5 µg/mL | MIC (μg/mL) S. marcescens [5, 15]: 12.5 µg/mL | MIC (μg/mL) K. pneumonia [6, 16]: 12.5 µg/mL | MIC (μg/mL) A. hydrophila [7, 17]: 12.5 µg/mL | MIC (μg/mL) P. mirabilis [8, 18]: 12.5 µg/mL | MIC (μg/mL) P. aeruginosa [9, 19]: 50 µg/mL | MIC (μg/mL) E. cloacae [10, 20]: 50 µg/mL | MIC (μg/mL) E. coli BL21 ([11]; 10 h cultivation at 37° C.): 12.5 µg/mL

PRT684 (APVLCPLICHNGGVCVKPDRCLCPPDFAGKFCQ; listed as Homo sapiens)
MIC C. diversus ([1]; 96-well plate, 37° C., 10 h): 25 µg/mL | MIC M. catarrhalis ([2]; 96-well plate, 37° C., 10 h): 12.5 µg/mL | MIC [3]: 12.5 µg/mL | MIC P. vulgaris ([4]; 96-well plate, 37° C., 10 h): 50 µg/mL | MIC S. marcescens ([5]; 96-well plate, 37° C., 10 h): 12.5 µg/mL | MIC K. pneumonia ([6]; 96-well plate, 37° C., 10 h): 25 µg/mL | MIC A. hydrophila ([7]; 96-well plate, 37° C., 10 h): 50 µg/mL | MIC P. mirabilis ([8]; 96-well plate, 37° C., 10 h): 25 µg/mL | MIC P. aeruginosa ([9]; 96-well plate, 37° C., 10 h): 50 µg/mL | MIC E. cloacae ([10]; 96-well plate, 37° C., 10 h): 12.5 µg/mL | MIC E. coli BL21 ([11]; 96-well plate, 37° C., 10 h): 25 µg/mL

PRT21 (NCATPCTEGCECNQGFVLSTSQCV; listed as Homo sapiens)
MIC (μg/mL) C. diversus ([1]; Citrobacter diversus, 96-well plate, 37° C., 10 h): 25 µg/mL | MIC (μg/mL) M. catarrhalis ([2]; Moraxella catarrhalis, 96-well plate, 37° C., 10 h): 12.5 µg/mL | MIC [3]: 25 µg/mL | MIC (μg/mL) P. vulgaris ([4]; Proteus vulgaris, 96-well plate, 37° C., 10 h): 25 µg/mL | MIC (μg/mL) S. marcescens ([5]; Serratia marcescens, 96-well plate, 37° C., 10 h): 50 µg/mL | MIC (μg/mL) K. pneumonia ([6]; Klebsiella pneumonia, 96-well plate, 37° C., 10 h): 25 µg/mL | MIC (μg/mL) A. hydrophila ([7]; Aeromonas hydrophila, 96-well plate, 37° C., 10 h): 12.5 µg/mL | MIC (μg/mL) P. mirabilis ([8]; Proteus mirabilis, 96-well plate, 37° C., 10 h): 50 µg/mL | MIC (μg/mL) P. aeruginosa ([9]; Pseudomonas aeruginosa, 96-well plate, 37° C., 10 h): 12.5 µg/mL | MIC (μg/mL) E. cloacae ([10]; Enterobacter cloacae, 96-well plate, 37° C., 10 h): 50 µg/mL | MIC (μg/mL) E. coli BL21 ([11]; 96-well plate, 37° C., 10 h): 50 µg/mL

PRT991 (RGLLCGSFPEPCANGGTCLSLSLGQGTCQCAPGFLGETCQ; listed as Homo sapiens)
MIC [1, 12]: 50 µg/mL | MIC [2, 13]: 12.5 µg/mL | MIC [3]: 50 µg/mL | MIC [4, 14]: 12.5 µg/mL | MIC [5, 15]: 25 µg/mL | MIC [6, 16]: 25 µg/mL | MIC [7, 17]: 12.5 µg/mL | MIC [8, 18]: 25 µg/mL | MIC [9, 19]: 12.5 µg/mL | MIC [10, 20]: 50 µg/mL | MIC ([11]; 10 h cultivation at 37° C.): 25 µg/mL

PRT674 (DVDECQDPAACRPGRCVNLPGSYRCECRPPWVPGPSGRDCQ; listed as Homo sapiens)
MIC C. diversus ([1]; 96-well plate, 37° C., 10 h): 25 µg/mL | MIC M. catarrhalis ([2]; 96-well plate, 37° C., 10 h): 25 µg/mL | MIC [3]: 12.5 µg/mL | MIC P. vulgaris ([4]; 96-well plate, 37° C., 10 h): 50 µg/mL | MIC S. marcescens ([5]; 96-well plate, 37° C., 10 h): 25 µg/mL | MIC K. pneumonia ([6]; 96-well plate, 37° C., 10 h): 25 µg/mL | MIC A. hydrophila ([7]; 96-well plate, 37° C., 10 h): 50 µg/mL | MIC P. mirabilis ([8]; 96-well plate, 37° C., 10 h): 12.5 µg/mL | MIC P. aeruginosa ([9]; 96-well plate, 37° C., 10 h): 50 µg/mL | MIC E. cloacae ([10]; 96-well plate, 37° C., 10 h): 12.5 µg/mL | MIC E. coli BL21 ([11]; 96-well plate, 37° C., 10 h): 25 µg/mL
